{"source": "patent EP1060742A1", "about": "“INTERSTITIAL ADENOSINE LEVEL-ELEVATING AGENTS” (priority 1998, dated 1999)", "key": {"[1]": {"test_system": "cardiomyopathic Syrian hamsters (Bio 14.6 strain)", "assay": "Heart failure and myocardiopathy test in cardiomyopathic hamsters, oral dosing for 87 days", "type": "in vivo, hamster", "conditions": "for AST (GOT) level / LDH level: day 30, 60mg/kg/day", "method": "Male aged-matched normal healthy golden hamsters (F1B strain) were used as control animals. These hamsters were purchased from Biobreeders Inc. Throughout the test period, the animals were housed in stainless steel cage in a temperature (23 ± 1C° )controlled room where a daily light-dark cycle was maintained artificially at 12 hours intervals. The animals were fed with commercially available pellet (CE-2, CLEA Japan, Inc.) and provided adde libitum with feed pellets and water. Incidentally, after they were purchased, the animals were acclimated to the above environment at least one week before subjected to experiments.\nThe test compound was suspended in a 0.5% sodium carboxymethyl cellulose (CMC-Na) solution. This dosing solution was orally administered for 87 days at dosages of 30mg/kg/day and 60mg/kg/day and a dose volume of 20ml/kg.\nCaptopril was used as a control compound. The compound was similarly suspended in a 0.5% CMC-Na solution and was orally administered for 87 days at a dosage of 60mg/kg/day and a dose volume of 20ml/kg.\nA group of animals administered with a 0.5% CMC-Na solution served as a vehicle control group. The solution was administered once daily from Monday through Friday but not on Saturdays and Sundays.\n(§1) Body weight was recorded on every Monday and Thursday after the administration of the test compound. […]\nBlood samples were collected before administration of the test compound, and 45 and 88 days after administration. The blood samples were collected from venous plexus of eyegrounds under anesthesia by ether. Blood plasma was separated from the samples and plasma norepinephrine (NE) levels were measured using a catecholamine assay system.\nMyocardial tissue preparations were prepared 88 days after the administration was started. The animals were sacrificed by exsanguination under anesthesia by ether. Chests were opened and hearts extirpated. Weight of the hearts was measured and the hearts were fixed in a 10% buffered neutral formaldehyde solution. Bases of the hearts were sliced to a 3mm thickness and formed into paraffin slices with respect to the side of the base using ordinary methods. The slices were stained with kossa, hematoxylin/eosin (H&E) and H&E/aniline blue stains. The preparations of the hearts so prepared were measured in area for regions of cardiac fibrosis, mineral deposition, myocardial necrosis, and macrophage infiltration, using an image analyzing system (Mac SCOPE Ver.2.1, Mitsuya Shoji).\n(§2) Measurements were expressed in mean ± S.E., and tests for significant differences between the respective groups were performed using Dunnett's multiple comparison test."}, "[2]": {"test_system": "myocardial adenosine level", "assay": "Effects on myocardial adenosine level in extirpated, Langendorff-perfused rat hearts (HPLC)", "conditions": "10^-5 M, 15-minute perfusion, compared to vehicle control group (0.04% DMSO)", "method": "Male Sprange-Dawley rats aged 7 to 8 weeks were used. Hearts were extirpated under anesthesia by pentobarbital (50mg/kg, intra-abdominally injected) and were suspended in a Langendorff's apparatus.\nThe hearts were then frozen with liquid nitrogen. 10 equivalents of 0.6N perchloric acid were added to the frozen tissue and the tissue was homogenized and neutralized by 1N KOH and was then centrifuged. After centrifugation, the level of adenosine in the supernatant was measured by HPLC.\nPropranol was used as a control compound for the test and 0.04% DMSO solution was used as a vehicle control.\nas §2"}, "[3]": {"test_system": "cardiomyopathic Syrian hamsters (Bio 14.6 strain)", "assay": "Heart failure and myocardiopathy test in cardiomyopathic hamsters, oral dosing for 87 days", "type": "in vivo, hamster", "conditions": "Bio 14.6 hamsters, 30, 60 and 88 days, all tests other than AST (GOT) and LDH on day 30 at 60mg/kg/day"}, "[4]": {"test_system": "male ICR mice", "assay": "Toxicity test, subcutaneous administration to mice, observed for one week", "type": "in vivo"}, "[5]": {"test_system": "normal healthy golden hamsters (F1B strain)", "conditions": "hamster, in vivo", "method": "Male cardiomyopathic Syrian hamsters (Bio 14.6 strain) aged 7 weeks were used. Male aged-matched normal healthy golden hamsters (F1B strain) were used as control animals. These hamsters were purchased from Biobreeders Inc. Throughout the test period, the animals were housed in stainless steel cage in a temperature (23 ± 1C° )controlled room where a daily light-dark cycle was maintained artificially at 12 hours intervals. The animals were fed with commercially available pellet (CE-2, CLEA Japan, Inc.) and provided adde libitum with feed pellets and water. […]\nas §1\nBlood samples were collected before administration of the test compound, and 45 and 88 days after administration. […] Blood plasma was separated from the samples and plasma norepinephrine (NE) levels were measured using a catecholamine assay system.\nMyocardial tissue preparations were prepared 88 days after the administration was started. […] Weight of the hearts was measured and the hearts were fixed in a 10% buffered neutral formaldehyde solution. […] The preparations of the hearts so prepared were measured in area for regions of cardiac fibrosis, mineral deposition, myocardial necrosis, and macrophage infiltration, using an image analyzing system (Mac SCOPE Ver.2.1, Mitsuya Shoji). […]"}, "[6]": {"assay": "Toxicity test, oral administration to fasted mice, observed for two weeks, LD50 by the Richfield-Wilcockson method", "type": "in vivo", "conditions": "mouse, in vivo, mice, Richfield-Wilcockson method", "method": "(§3) LD50 was determined using the Richfield-Wilcockson method."}, "[7]": {"test_system": "mice", "assay": "Toxicity test, oral administration to fasted mice, observed for two weeks, LD50 by the Richfield-Wilcockson method", "type": "in vivo", "conditions": "0.025N hydrochloric acid-saline solution, after 16-hour fasting, observed for two weeks", "method": "as §3"}, "[8]": {"conditions": "Bio 14.6 hamsters, 88 days after administration, 60mg/kg/day, compared to vehicle control group"}, "[9]": {"conditions": "Bio 14.6 hamsters, day 88, 60mg/kg/day oral"}, "[10]": {"conditions": "Bio 14.6 hamsters, day 88, 60mg/kg/day, image analysis"}, "[11]": {"conditions": "Bio 14.6 hamsters, day 88, 30mg/kg/day, image analysis"}}, "data": [{"smiles": "C[C@H](CS)C(=O)N1CCC[C@H]1C(=O)O", "note": "[captopril, reference compound]", "values": [{"measurement": "plasma NE level", "setting": "[1]; [8]", "value": "The same results were obtained"}, {"measurement": "AST (GOT) level", "setting": "[1]; Bio 14.6 hamsters", "value": "tendency of decrease"}, {"measurement": "LDH level", "setting": "[1]; Bio 14.6 hamsters", "value": "tendency of decrease"}, {"measurement": "relative heart weight", "setting": "[1]; [9]", "value": "The same results were obtained"}, {"measurement": "area of cardiac lesions", "setting": "[1]; [10]", "value": "significant decrease in area"}, {"measurement": "area of regions of fibrosis", "setting": "[1]; [10]", "value": "significant decrease in area"}, {"measurement": "area of regions of macrophage infiltration", "setting": "[1]; [10]", "value": "significant decrease in area"}, {"measurement": "area of regions of myocardial necrosis", "setting": "[1]; [10]", "value": "significant decrease in area"}]}, {"smiles": "CC(C)NCC(O)COc1cccc2ccccc12", "note": "(centres unmarked) [propranol, reference compound]", "values": [{"measurement": "myocardial adenosine level", "setting": "[2]", "value": "no significant difference"}]}, {"smiles": "COC(=O)C12C(O)C(C(=O)Cc3ccccn3)=NN1C(c1ccccc1)C=CC2c1ccccc1", "note": "(centres unmarked) [compound No.1, 2,5-diphenyl-7-hydroxy-6-methoxycarbonyl-8-(2-pyridyl)acetyl-1,9-diazabicyclo[4.3.0]-nona-3,8-dien]", "values": [{"measurement": "myocardial adenosine level", "setting": "[2]", "value": "increased three-fold"}, {"measurement": "clinical chemistry tests (all the other tests)", "setting": "[3]", "value": "no effect"}, {"measurement": "plasma NE level", "setting": "[1]; 45 days after administration, each dosage, compared to vehicle control groups, strain not specified in the sentence (Fig.4)", "value": "did not have significant effects"}, {"measurement": "plasma NE level", "setting": "[1]; [8]", "value": "significantly lower level"}, {"measurement": "plasma NE level", "setting": "[1]; Bio 14.6 hamsters, 88 days after administration, across 30 and 60mg/kg/day", "value": "decrease in a dose-dependent manner"}, {"measurement": "AST (GOT) level", "setting": "[1]; Bio 14.6 hamsters", "value": "tendency of decrease"}, {"measurement": "LDH level", "setting": "[1]; Bio 14.6 hamsters", "value": "tendency of decrease"}, {"measurement": "relative heart weight", "setting": "[1]; Bio 14.6 hamsters, day 88, 30mg/kg/day oral", "value": "significant suppression of increase"}, {"measurement": "area of cardiac legions (sum of the areas of necrosis, macrophage infiltration and fibrosis)", "setting": "[1]; [11]", "value": "significant decrease in area"}, {"measurement": "area of regions of fibrosis", "setting": "[1]; [11]", "value": "significant decrease in area"}, {"measurement": "area of regions of macrophage infiltration", "setting": "[1]; [11]", "value": "significant decrease in area"}, {"measurement": "area of regions of myocardial necrosis", "setting": "[1]; [11]", "value": "significant decrease in area"}, {"measurement": "relative heart weight", "setting": "[1]; [9]", "value": "significant suppression of increase"}, {"measurement": "area of regions of macrophage infiltration", "setting": "[1]; [10]", "value": "significant decrease in area"}, {"measurement": "area of regions of myocardial necrosis", "setting": "[1]; [10]", "value": "significant decrease in area"}, {"measurement": "relative liver weight", "setting": "[1]; Bio 14.6 hamsters, day 88, oral", "value": "did not have effects"}, {"measurement": "changes in body weight", "setting": "[1]; Bio 14.6 hamsters, each dosage (30mg/kg/day and 60mg/kg/day), oral", "value": "did not affect"}, {"measurement": "clinical observations related to treatment", "setting": "[4]; mouse, in vivo, sc", "value": "no clinical observations"}, {"measurement": "mortality", "setting": "[4]; subcutaneous, 10ml/kg of a 10% aqueous polyethylene glycol 400 solution, observed for one week", "value": "no mortality"}, {"measurement": "clinical chemistry tests", "setting": "[5]", "value": "no effect"}, {"measurement": "LD50 at 336 h", "setting": "[6]", "value": "> 100", "unit": "mg/kg"}, {"measurement": "clinical observations", "setting": "[7]", "value": "no clinical observations"}, {"measurement": "mortality", "setting": "[7]", "value": "no mortality"}]}]}
